Results on one compound are retold here after patent US12264185B2, “Stabilized BCL9 peptides for treatment of aberrant Wnt signaling” (WntRx Pharmaceuticals Inc., priority 2015, dated 2025).

The structures appear in SMILES notation.

A short description of the series: in vivo. The following applies: female, balb/c, mouse, ip.

Consider `CC[C@H](C)[C@@H]1NC(=O)[C@@](C)(NC(=O)[C@H](CCCNC(=N)N)NC(=O)[C@H](CC(C)C)NC(=O)[C@@H](NC(=O)[C@H](CCC(N)=O)NC(=O)[C@H](CC(C)C)NC(C)=O)[C@@H](C)O)CCCC=CCCC[C@@](C)(C(=O)N[C@@H](CC(C)C)C(=O)N[C@@H](Cc2ccc3ccccc3c2)C(N)=O)NC(=O)[C@H](CCCNC(=N)N)NC(=O)[C@H](CCC(N)=O)NC1=O` [WX-024, LQTLRXaa1IQRXaa2L], for which, where the note is “10 mg/kg”, the AUC(0-inf) (as a rule, total exposure, with the tail of the curve extrapolated) was 41.1 µg·h/mL; the AUC(0-t) (in general, the area under the concentration-time curve up to a stated or last time point) was 37.8 µg·h/mL; the Tmax (as a rule, the time from dosing to the highest level) stood at 2 h. Moreover, where the note is “15 mg/kg”, the AUC(0-inf) was 109 µg·h/mL, the AUC(0-t) turned out to be 107 µg·h/mL, the concentration peaked (Cmax) at 8750 ng/mL and the Tmax amounted to 3.33 h. Under “20 mg/kg”, the AUC(0-inf) was 161 µg·h/mL, the AUC(0-t) was 160 µg·h/mL, the peak level (Cmax) was 13700 ng/mL and the Tmax stood at 4 h.
